# Experimental data reported in patent US10939684B2, “Preparation of sulfonamide-containing antimicrobials and substrate treating compositions of sulfonamide-containing antimicrobials” (NANO SAFE COATINGS INCORPORATED, priority 2015, dated 2021).
# “Also recorded” adds a separate entry of the source.
# System: Arthrobacter spp.
# Assay: Large-droplet inoculation method, antimicrobial efficacy at solid-air interfaces
# Assay type: cell-based
# Settings: for Average: average of A-C; for A (cfu): replicate A; for B (cfu): replicate B; for C (cfu): replicate C
# Text: Large-droplet inoculation method (Ronan E. et al, Biofouling 2013, 29, 1087-1096) Many pathogens are able to remain viable during extended periods of desiccation on inanimate surfaces. Long-term survival of pathogens in the inanimate environment pose a significant risk for infection transmission and contamination in high-risk environments such as hospital rooms or food-processing plants. The large-droplet inoculation method was developed to simulate the deposition of bacterial species onto exposed surfaces and to determine the ability of these cells to survive desiccation.
# For these tests, small surface coupons were first coated with the antimicrobial using the method described above. Bacterial test species were grown overnight in a shaking incubator and cultures
# were washed twice to replace the growth media with sterile water. 100 μL aliquots of the prepared culture were then inoculated onto multiple coated surfaces and allowed to air-dry within a biological safety cabinet. Drying typically occurred 2-3 hours after inoculation, and surviving cells were enumerated immediately and 24 hours after drying. For enumeration, inoculated coupons were sacrificed in triplicate and placed inside separate tubes containing 5 mL of a 0.9% saline collection liquid. Each coupon was agitated vigorously for 1 minute with a bench-top vortex to transfer cells from the test surface to the collection liquid. Plate counts were then performed on serial dilutions of the collection liquid, and colony counts from triplicate treated surfaces were averaged and compared to colony counts from tests of untreated control surfaces carried out in parallel.
# A range of bacterial species were used in these tests. Arthrobacter spp., a gram-positive lab strain originally isolated from indoor air was used in the bulk of the testing, as it is known to be highly resistant to desiccation and therefore was used as a model for desiccation-tolerant pathogens. Efficacy tests were also carried out against, for example, gram-negative Escherichia coli (E. coli) and gram-positive Staphylococcus aureus (S. aureus), since they all contain pathogenic strains and have been implicated in major nosocomial outbreaks. […] The following are the tabulated bacterial reduction data: […]
# [1] = treated polyethylene, 3 hours, load 2.70E+07
# [2] = treated polyethylene, 24 hours, load 2.70E+07
# [3] = treated cotton, 3 hours, load 1.28E+08
# [4] = treated cotton, 3 hours, load 4.04E+07
# [5] = treated cotton, 24 hours, load 1.28E+08
# [6] = treated cotton, 24 hours, load 4.04E+07
# [7] = treated cotton, 3 hours, load 6.10E+07
# [8] = treated cotton, 24 hours, load 6.10E+07
Structure (SMILES),Average [1] [cfu],A (cfu) [1] [cfu],B (cfu) [1] [cfu],C (cfu) [1] [cfu],Average [2] [cfu],A (cfu) [2] [cfu],B (cfu) [2] [cfu],C (cfu) [2] [cfu],Average [4] [cfu],A (cfu) [4] [cfu],B (cfu) [4] [cfu],C (cfu) [4] [cfu],Average [6] [cfu],A (cfu) [6] [cfu],B (cfu) [6] [cfu],C (cfu) [6] [cfu],also measured
"C[N+](C)(CCCNS(=O)(=O)c1cccc2ccccc12)CCCOc1ccc(C(=O)c2ccccc2)cc1.[Br-] [Example 5c, 3-(4-benzoylphenoxy)-N,N-dimethyl-N-(3-(naphthalene-1-sulfonamido)propyl)propan-1-aminium bromide]",0.00E+00,0.00E+00,0.00E+00,0.00E+00,0.00E+00,0.00E+00,0.00E+00,0.00E+00,,,,,,,,,"activity against Arthrobacter spp. (in words) (treated polyethylene coupons, compared to untreated control (FIG. 5), listed as 3-(4-benzoylphenoxy)-N,N-dimethyl-N-(3-(naphthalene-1-sulfonamido)propyl)propan-): eradicated within three hours"
"CO[Si](CCC[N+](C)(C)CCCNS(=O)(=O)c1ccc(C)cc1)(OC)OC.[Cl-] [Example 2a, N,N-dimethyl-3-(4-methylphenylsulfonamido)-N-(3-(trimethoxysilyl)propyl) propan-1-aminium chloride]",,,,,,,,,0.00E+00,0.00E+00,0.00E+00,0.00E+00,0.00E+00,0.00E+00,0.00E+00,0.00E+00,"activity against Arthrobacter spp. (in words) (treated cotton, compared to untreated control (FIG. 3, FIG. 4), listed as N,N-dimethyl-3-(4-methylphenyl sulfonamido)-N-(3-(trimethoxysilyl)propyl)propan-): excellent activity; activity against Arthrobacter spp. (in words) (treated cotton, compared to untreated control (FIG. 3, FIG. 4), listed as N,N-dimethyl-3-(4-methylphenylsulfonamido)-N-(3-(trimethoxysilyl) propyl)propan-): excellent activity; activity against Arthrobacter spp. (in words) (treated cotton, compared to untreated control (FIG. 3, FIG. 4), listed as N,N-dimethyl-3-(4-methylphenylsulfonamido)-N-(3-(trimethoxysilyl)propyl)propan-1): eradicated within three hours; Average [3]: 0.00E+00 cfu; A (cfu) [3]: 0.00E+00 cfu; B (cfu) [3]: 0.00E+00 cfu; C (cfu) [3]: 0.00E+00 cfu; Average [5]: 0.00E+00 cfu; A (cfu) [5]: 0.00E+00 cfu; B (cfu) [5]: 0.00E+00 cfu; C (cfu) [5]: 0.00E+00 cfu"
"CO[Si](CCC[N+](C)(C)CCCNS(=O)(=O)c1ccccc1)(OC)OC.[Cl-] [Example 1a, N,N-dimethyl-3-(phenylsulfonamido)-N-(3-(trimethoxysilyl)propyl)propan-1-aminium chloride]",,,,,,,,,,,,,,,,,"activity against Arthrobacter spp. (in words) (treated cotton, compared to untreated control (FIG. 3, FIG. 4)): eradicated within three hours; also recorded: excellent activity; Average [7]: 0.00E+00 cfu; A (cfu) [7]: 0.00E+00 cfu; B (cfu) [7]: 0.00E+00 cfu; C (cfu) [7]: 0.00E+00 cfu; Average [8]: 0.00E+00 cfu; A (cfu) [8]: 0.00E+00 cfu; B (cfu) [8]: 0.00E+00 cfu; C (cfu) [8]: 0.00E+00 cfu"
"C[N+](C)(CCCNS(=O)(=O)c1ccccc1)CCCOc1ccc(C(=O)c2ccccc2)cc1.[Br-] [Example 1c, 3-(4-benzoylphenoxy)-N,N-dimethyl-N-(3-(phenylsulfonamido)propyl) propan-1-aminium bromide]",0.00E+00,0.00E+00,0.00E+00,0.00E+00,0.00E+00,0.00E+00,0.00E+00,0.00E+00,,,,,,,,,"activity against Arthrobacter spp. (in words) (treated polyethylene coupons, compared to untreated control (FIG. 5), listed as 3-(4-benzoylphenoxy)-N,N-dimethyl-N-(3-(phenyl sulfonamido)propyl)propan- 1-amin): excellent activity; activity against Arthrobacter spp. (in words) (treated polyethylene coupons, compared to untreated control (FIG. 5), listed as 3-(4-benzoylphenoxy)-N,N-dimethyl-N-(3-(phenylsulfonamido)propyl)propan-1-aminiu): eradicated within three hours"
"CO[Si](CCC[N+](C)(C)CCCNS(=O)(=O)c1c(C)cc(C)cc1C)(OC)OC.[Cl-] [Example 3a, N,N-dimethyl-3-(trimethoxysilyl)-N-(3-(2,4,6-trimethylphenylsulfonamido)propyl)propan-1-aminium chloride]",,,,,,,,,0.00E+00,0.00E+00,0.00E+00,0.00E+00,0.00E+00,0.00E+00,0.00E+00,0.00E+00,"activity against Arthrobacter spp. (in words) (treated cotton, compared to untreated control (FIG. 3, FIG. 4), listed as N,N-dimethyl-3-(trimethoxysilyl)-N-(3-(2,4,6-trimethyl phenylsulfonamido)propyl)): excellent activity; activity against Arthrobacter spp. (in words) (treated cotton, compared to untreated control (FIG. 3, FIG. 4), listed as N,N-dimethyl-3-(trimethoxysilyl)-N-(3-(2,4,6-trimethylphenylsulfonamido)propyl)p): eradicated within three hours"
"C[N+](C)(CCCNS(=O)(=O)c1cccc2ccccc12)CCCOc1ccc(C(=O)c2ccccc2)cc1.[Br-] [3-(4-benzoylphenoxy)-N,N-dimethyl-N-(3-(naphthalene-1-sulfonamido)propyl)propan-1-aminium bromide]",,,,,,,,,,,,,,,,,"activity against Arthrobacter spp. (in words) (treated polyethylene coupons, compared to untreated control (FIG. 5)): excellent activity"
